The values that follow come from patent US11083196B2, “Microbiocidal oxadiazole derivatives” (SYNGENTA PARTICIPATIONS AG, priority 2016, dated 2021).

SMILES strings stand for the structures. “And” between values parts separate entries of the source, which are not always exact repeats. Identical values can stand only once.

Data set [1] deals with Glomerella lagenarium (Colletotrichum lagenarium). Put plainly: Fungicidal activity against Glomerella lagenarium (Colletotrichum lagenarium), liquid culture / cucumber / preventative (anthracnose). Format: cell-based. The settings on record: Colletotrichum orbiculare, liquid culture (PDB), growth inhibition measured photometrically 3-4 days after application, compared to untreated control. Here is the method:
Mycelia fragments or conidia suspensions of a fungus, prepared either freshly from liquid cultures of the fungus or from cryogenic storage, are directly mixed into nutrient broth. DMSO solutions of the test compound (max. 10 mg/ml) is diluted with 0.025% Tween20 by a factor of 50 and 10 μl of this solution is pipetted into a microtiter plate (96-well format). The nutrient broth containing the fungal spores/mycelia fragments is then added to give an end concentration of the tested compound. The test plates are incubated in the dark at 24° C. and 96% relative humidity. The inhibition of fungal growth is determined photometrically after 2 to 7 days, depending on the pathosystem, and percent antifungal activity relative to the untreated check is calculated. Conidia of the fungus from cryogenic storage are directly mixed into nutrient broth (PDB potato dextrose broth). After placing a (DMSO) solution of test compound into a microtiter plate (96-well format), the nutrient broth containing the fungal spores is added. The test plates are incubated at 24° C. and the inhibition of growth is measured photometrically 3-4 days after application.

Data set [2] relates to Puccinia recondita f. sp. tritici. Put plainly: Fungicidal activity against Puccinia recondita f. sp. tritici / wheat / leaf disc curative (brown rust). Format: in vivo. The settings on record: foliar, 144 h, wheat leaf segments cv. Kanzler, applied 1 day after inoculation, assessed 6-8 days after application, compared to untreated control. Here is the method:
Leaf disks or leaf segments of various plant species are cut from plants grown in a greenhouse. The cut leaf disks or segments are placed in multiwell plates (24-well format) onto water agar. The leaf disks are sprayed with a test solution before (preventative) or after (curative) inoculation. Compounds to be tested are prepared as DMSO solutions (max. 10 mg/ml) which are diluted to the appropriate concentration with 0.025% Tween20 just before spraying. The inoculated leaf disks or segments are incubated under defined conditions (temperature, relative humidity, light, etc.) according to the respective test system. A single evaluation of disease level is carried out 3 to 14 days after inoculation, depending on the pathosystem. Percent disease control relative to the untreated check leaf disks or segments is then calculated. Wheat leaf segments cv. Kanzler are placed on agar in multiwell plates (24-well format). The leaf segments are inoculated with a spore suspension of the fungus. Plates are stored in darkness at 19° C. and 75% rh. The formulated test compound diluted in water is applied 1 day after inoculation. The leaf segments are incubated at 19° C. and 75% rh under a light regime of 12 h light/12 h darkness in a climate cabinet and the activity of a compound is assessed as percent disease control compared to untreated when an appropriate level of disease damage appears in untreated check leaf segments (6-8 days after application).

For data set [3] the test system is unchanged. Put plainly: Fungicidal activity against Puccinia recondita f. sp. tritici / wheat / leaf disc preventative (brown rust). It counts as in vivo. Conditions: foliar, 168 h, wheat leaf segments cv. Kanzler, inoculated 1 day after application, assessed 7-9 days after application, compared to untreated control. As to the method:
Leaf disks or leaf segments of various plant species are cut from plants grown in a greenhouse. The cut leaf disks or segments are placed in multiwell plates (24-well format) onto water agar. The leaf disks are sprayed with a test solution before (preventative) or after (curative) inoculation. Compounds to be tested are prepared as DMSO solutions (max. 10 mg/ml) which are diluted to the appropriate concentration with 0.025% Tween20 just before spraying. The inoculated leaf disks or segments are incubated under defined conditions (temperature, relative humidity, light, etc.) according to the respective test system. A single evaluation of disease level is carried out 3 to 14 days after inoculation, depending on the pathosystem. Percent disease control relative to the untreated check leaf disks or segments is then calculated. Wheat leaf segments cv. Kanzler are placed on agar in multiwell plates (24-well format) and sprayed with the formulated test compound diluted in water. The leaf disks are inoculated with a spore suspension of the fungus 1 day after application. The inoculated leaf segments are incubated at 19° C. and 75% rh under a light regime of 12 h light/12 h darkness in a climate cabinet and the activity of a compound is assessed as percent disease control compared to untreated when an appropriate level of disease damage appears in untreated check leaf segments (7-9 days after application).

For a further data set, the system named is Phakopsora pachyrhizi. Put plainly: Fungicidal activity against Phakopsora pachyrhizi / soybean / leaf disc preventative (Asian soybean rust). It counts as in vivo. The settings on record: foliar, 288 h, soybean leaf disks, inoculated one day after application, assessed 12-14 days after application, compared to untreated control. Here is the method: Leaf disks or leaf segments of various plant species are cut from plants grown in a greenhouse. The cut leaf disks or segments are placed in multiwell plates (24-well format) onto water agar. The leaf disks are sprayed with a test solution before (preventative) or after (curative) inoculation. Compounds to be tested are prepared as DMSO solutions (max. 10 mg/ml) which are diluted to the appropriate concentration with 0.025% Tween20 just before spraying. The inoculated leaf disks or segments are incubated under defined conditions (temperature, relative humidity, light, etc.) according to the respective test system. A single evaluation of disease level is carried out 3 to 14 days after inoculation, depending on the pathosystem. Percent disease control relative to the untreated check leaf disks or segments is then calculated. Soybean leaf disks are placed on water agar in multiwell plates (24-well format) and sprayed with the formulated test compound diluted in water. One day after application leaf discs are inoculated by spraying a spore suspension on the lower leaf surface. After an incubation period in a climate cabinet of 24-36 hours in darkness at 20° C. and 75% rh leaf disc are kept at 20° C. with 12 h light/day and 75% rh. The activity of a compound is assessed as percent disease control compared to untreated when an appropriate level of disease damage appears in untreated check leaf disks (12-14 days after application).

In the case of `Cc1cc(C)n(-c2ccc(-c3noc(C(F)(F)F)n3)cc2)n1` [Compound E-1, 3-[4-(3,5-dimethylpyrazol-1-yl)phenyl]-5-(trifluoromethyl)-1,2,4-oxadiazole], the melting point (in general, the temperature, or range, at which the solid turns liquid) lay within 109 to 111 °C. In data set [1], the inhibition of growth (usually the drop in the measured response relative to a control, in per cent) at 20 ppm was at least 80%. Also, the pest or weed control (in general, how far the test organism was held down) at 200 ppm in data set [2] was at least 80%. The pest or weed control at 200 ppm in data set [3] is at least 80%.
With `Fc1cc(-c2ccc(-c3noc(C(F)(F)F)n3)cc2)ccn1` [Compound D-7, 3-[4-(2-fluoro-4-pyridyl)phenyl]-5-(trifluoromethyl)-1,2,4-oxadiazole], the melting point fell in the range of 105 to 110 °C. Moreover, the inhibition of growth at 20 ppm in data set [1] was at least 80%. In data set [2], this compound returned a pest or weed control at 200 ppm of at least 80%. The compound also showed a pest or weed control at 200 ppm in data set [3] of at least 80%.
Compound `FC(F)(F)c1nc(-c2ccc(C3CC(C4CC4)=NO3)cc2)no1` (centres unmarked) [Compound A-12, 3-[4-(3-cyclopropyl-4,5-dihydroisoxazol-5-yl)phenyl]-5-(trifluoromethyl)-1,2,4-oxadiazole] showed a melting point of 109 to 112 °C. This compound had a pest or weed control at 200 ppm in the data set with Phakopsora pachyrhizi of at least 80%. This compound also displayed an inhibition of growth at 20 ppm in data set [1] of at least 80%. The pest or weed control at 200 ppm in data set [3] is at least 80%.
Consider `O=C(C1CC1)N1CCCC1c1ccc(-c2noc(C(F)(F)F)n2)cc1` (centres unmarked) [Compound A-36, cyclopropyl-[2-[4-[5-(trifluoromethyl)-1,2,4-oxadiazol-3-yl]phenyl]pyrrolidin-1-yl]methanone], for which the pest or weed control at 200 ppm (in the data set on Phakopsora pachyrhizi; in data set [2]) was at least 80% throughout. The compound also came in with an inhibition of growth at 20 ppm in data set [1] of at least 80%.
Turning to `FC(F)(F)c1nc(-c2ccc(C3=NCCO3)cc2)no1` [Compound A-3, 3-[4-(4,5-dihydrooxazol-2-yl)phenyl]-5-(trifluoromethyl)-1,2,4-oxadiazole], the melting point lay within 120 to 125 °C. Also, the pest or weed control at 200 ppm in the data set with Phakopsora pachyrhizi is at least 80%. This compound also showed a pest or weed control at 200 ppm in data set [2] of at least 80%. Besides, the pest or weed control at 200 ppm in data set [3] was at least 80%.
`FC(F)(F)c1nc(-c2ccc(-c3nc(CCl)co3)cc2)no1` [Compound C-4, 3-[4-[4-(chloromethyl)oxazol-2-yl]phenyl]-5-(trifluoromethyl)-1,2,4-oxadiazole]: the melting point lay within 106 to 107 °C. The compound also returned a pest or weed control at 200 ppm in the data set with Phakopsora pachyrhizi of at least 80%. For the same compound, the inhibition of growth at 20 ppm in data set [1] was at least 80%.
Turning to `CS(=O)(=O)N1CCCC1c1ccc(-c2noc(C(F)(F)F)n2)cc1` (centres unmarked) [Compound A-30, 3-[4-(1-methylsulfonyl-pyrrolidin-2-yl)phenyl]-5-(trifluoromethyl)-1,2,4-oxadiazole], the melting point lay within 117.7 to 118.6 °C. In addition, the inhibition of growth at 20 ppm in data set [1] was at least 80%. In data set [2], this compound showed a pest or weed control at 200 ppm of at least 80%. In data set [3], this compound displayed a pest or weed control at 200 ppm of at least 80%.
As to `Fc1ccc(-c2ccc(-c3noc(C(F)(F)F)n3)cc2)cn1` [Compound D-6, 3-[4-(6-fluoro-3-pyridyl)phenyl]-5-(trifluoromethyl)-1,2,4-oxadiazole], the melting point fell in the range of 75 to 80 °C. The inhibition of growth at 20 ppm in data set [1] is at least 80%. In data set [2], this compound had a pest or weed control at 200 ppm of at least 80%. The compound further gave a pest or weed control at 200 ppm in data set [3] of at least 80%.
Regarding `COCC(=O)NC1CSC(c2ccc(-c3noc(C(F)(F)F)n3)cc2)=N1` (centres unmarked) [Compound A-28, 2-methoxy-N-(2-[4-[5-(trifluoromethyl)-1,2,4-oxadiazol-3-yl]phenyl]-4,5-dihydrothiazol-4-yl]acetamide], the pest or weed control at 200 ppm (in the data set on Phakopsora pachyrhizi; in data set [2]; in data set [3]) was at least 80% each time. Moreover, the inhibition of growth at 20 ppm in data set [1] was at least 80%.
For `CC(=O)OCc1cnc(-c2ccc(-c3noc(C(F)(F)F)n3)cc2)o1` [Compound C-1, [2-[4-[5-(trifluoromethyl)-1,2,4-oxadiazol-3-yl]phenyl]oxazol-5-yl]methyl acetate], the melting point fell in the range of 69 to 71 °C. Further, the pest or weed control at 200 ppm with Phakopsora pachyrhizi is at least 80%. For the same compound, the pest or weed control at 200 ppm in data set [2] is at least 80%. Also, in data set [3], the pest or weed control at 200 ppm was at least 80%.
`CC1(C)COC(c2ccc(-c3noc(C(F)(F)F)n3)cc2)NC1=O` (centres unmarked) [Compound A-10, 5,5-dimethyl-2-[4-[5-(trifluoromethyl)-1,2,4-oxadiazol-3-yl]phenyl]-1,3-oxazinan-4-one] displayed a melting point of 187.3 to 189 °C. Besides, in the data set on Phakopsora pachyrhizi, the pest or weed control at 200 ppm was at least 80%. Further, the inhibition of growth at 20 ppm in data set [1] is at least 80%. The same compound registered a pest or weed control at 200 ppm in data set [3] of at least 80%.
On to `Cc1cnc(-c2ccc(-c3noc(C(F)(F)F)n3)cc2)o1` [Compound C-2, 3-[4-(5-methyloxazol-2-yl)phenyl]-5-(trifluoromethyl)-1,2,4-oxadiazole], for which the melting point was 110 to 111 °C and 109 to 111 °C. Also, the pest or weed control at 200 ppm in the data set with Phakopsora pachyrhizi is at least 80%. Further, in data set [2], the pest or weed control at 200 ppm is at least 80%. In data set [3], this compound showed a pest or weed control at 200 ppm of at least 80%.
`CC1(C)COC(c2ccc(-c3noc(C(F)(F)F)n3)cc2)=N1` [Compound A-2, 3-[4-(4,4-dimethyl-5H-oxazol-2-yl)phenyl]-5-(trifluoromethyl)-1,2,4-oxadiazole] gave a melting point of 70 to 75 °C. The compound also gave an inhibition of growth at 20 ppm in data set [1] of at least 80%. Moreover, the pest or weed control at 200 ppm in data set [2] was at least 80%. In data set [3], this compound displayed a pest or weed control at 200 ppm of at least 80%.
The compound `CN(C)C(=O)C(=O)NC1CSC(c2ccc(-c3noc(C(F)(F)F)n3)c(F)c2)=N1` (centres unmarked) [Compound A-24, N-[2-[3-fluoro-4-[5-(trifluoromethyl)-1,2,4-oxadiazol-3-yl]phenyl]-4,5-dihydrothiazol-4-yl]-N′,N′-dimethyl-oxamide] showed a melting point of 120 to 165 °C. Moreover, the inhibition of growth at 20 ppm in data set [1] was at least 80%. In data set [2], the pest or weed control at 200 ppm is at least 80%. Further, in data set [3], the pest or weed control at 200 ppm is at least 80%.
`CCOCc1cc(-c2ccc(-c3noc(C(F)(F)F)n3)cc2)no1` [Compound C-5, 3-[4-[5-(ethoxymethyl)isoxazol-3-yl]phenyl]-5-(trifluoromethyl)-1,2,4-oxadiazole] displayed a pest or weed control at 200 ppm with Phakopsora pachyrhizi of at least 80%.
For `Nc1ccc(-c2ccc(-c3noc(C(F)(F)F)n3)cc2)cn1` [Compound D-12, 5-[4-[5-(trifluoromethyl)-1,2,4-oxadiazol-3-yl]phenyl]pyridin-2-amine], the melting point fell in the range of 155 to 160 °C. Further, in the data set on Phakopsora pachyrhizi, the pest or weed control at 200 ppm is at least 80%. Also, the inhibition of growth at 20 ppm in data set [1] is at least 80%. The compound also gave a pest or weed control at 200 ppm in data set [3] of at least 80%.
